In the test the test system is plasma membrane NADH oxidase. Put plainly: Spectrophotometric NADH oxidase assay, rat liver plasma membranes (normal cells). The test is classed as biochemical. As to the method:
Purification of plasma membranes from rat liver. A 5000 x g pellet from the preparation of Golgi apparatus (Morré (1971) Meth. Enzymol. 22, 130-148) was the starting material. The fluffy layer which contains the Golgi apparatus fraction was mixed, withdrawn and excluded from the plasma membrane preparations. Cold 1 mM NaHCO3 (5 ml) was added to each tube and the friable yellow-brown upper part of the pellet was resuspended with a pen-brush, leaving the reddish tightly packed bottom part of the pellet undisturbed. The resuspended material was homogenized in aliquots of 5 ml each in a 30 ml stainless steel homogenizer (Duragrind) 20 times by hand. The homogenates were combined, diluted with cold 1 mM NaHCO3 (1:1 dilution), and centrifuged at 6000 x g in a HB rotor for 15 min. The supernatant was discarded and the pellet was used for the two-phase separation (Morré & Morré (1989) BioTechniques 7:946-958).
The two-phase system contained 6.4% (w/w) Dextran T-500 (Pharmacia), 6.4% (w/w) polyethylene glycol) 3350 (Fisher), and 5 mM potassium phosphate buffer (pH 7.2) (Morré & Morré, 1989, supra). The homogenate (1 g) was added to the two-phase system and the weight of the system was brought to 8 g with distilled water. The tubes were inverted vigorously for 40 times in the cold (4°C). The phases were separated by centrifugation at 750 rpm (150 x g) in a Sorvall HB 4 rotor for 5 min. The upper phases were carefully withdrawn with a pasteur pipette, divided in half and transferred into 40 ml plastic centrifuge tubes and diluted with cold 1 mM NaHCO3. The purified plasma membranes were collected by centrifugation at 10,000 x g in a HB rotor for 30 min. Plasma membrane pellets were resuspended in 50 mM Tris-Mes buffer (pH 7.2) and stored at -70°C. Proteins were determined using the bicinchoninic acid (BCA) assay (Smith et al. (1985) Anal. Biochem. […]: 76-85) with bovine serum albumin as standard.
Spectrophometric assay of NADH oxidase. NADH oxidase activity was determined as the disappearance of NADH measured at 340 nm in a reaction mixture containing 25 mM Tris-MES buffer (pH 7.2), 1 mM KCN to inhibit the low levels of contaminating mitochondrial oxidase activity, and 150 µM NADH at 37°C with constant stirring. Activity was measured using a Hitachi U3210 spectrophotometer with continuous recording over two intervals of 5 min each. A millimolar extinction coefficient of 6.22 was used to determine specific activity.

As for `COc1cc(CNC(=O)CCCC/C=C/C(C)C)ccc1O` [capsaicin], the “effect on NADH oxidase activity (in words)” value was “no effect”.

(Values after patent EP0752872B1, “NADH OXIDASE AS A TARGET IN DIAGNOSIS AND THERAPY” (Morré, D. James, priority 1994, dated 1995).)
